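The compound was tested at five concentrations on cells cultured in 96-well plates, with a 48-hour exposure period. At the GI50, growth is halved.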 Activity calls are given as the source filed them. Rule as the data show it: active = GI50 up to about 1.1 µM and inactive = higher.
Key:
Experiment in all cases: NCI tumour cell line growth inhibition, 48 h
[1] = system: HCT-15
[2] = system: SF-539
[3] = system: Malme-3M
[4] = system: HOP-62
[5] = system: CAKI-1
[6] = system: HT-29
[7] = system: SK-MEL-5
[8] = system: CCRF-CEM
[9] = system: NCI-H460
[10] = system: ACHN
[11] = system: UO-31
[12] = system: SN12C
[13] = system: EKVX
[14] = system: SW-620
[15] = system: HOP-92
[16] = system: SNB-19
[17] = system: SR

Cc1ccc(Oc2ccc([N+](=O)[O-])cc2[N+](=O)[O-])c(C)c1
GI50 [1]: 35.1 µM | GI50 [2]: 58.7 µM (inactive) | GI50 [3]: 75 µM (inactive) | GI50 [4]: 49.2 µM (inactive) | GI50 [5]: 29.8 µM (inactive) | GI50 [6]: 25.6 µM (inactive) | GI50 [7]: 21.1 µM (inactive) | GI50 [8]: 30.1 µM (inactive) | GI50 [9]: 37.3 µM (inactive) | GI50 [10]: 47.6 µM (inactive) | GI50 [11]: 40.5 µM (inactive) | GI50 [12]: 41.2 µM (inactive) | GI50 [13]: 88.7 µM (inactive) | GI50 [14]: 47.1 µM (inactive)

CSc1nc(NC2OCC(OC(C)=O)C(OC(C)=O)C2OC(C)=O)c(/N=C(\C)C(C)=O)c(=O)n1C (stereo not drawn)
GI50 [1]: > 100 µM | GI50 [2]: > 100 µM (inactive) | GI50 [3]: > 100 µM (inactive) | GI50 [4]: > 100 µM (inactive) | GI50 [5]: > 100 µM (inactive) | GI50 [15]: > 100 µM (inactive) | GI50 [16]: > 100 µM (inactive) | GI50 [6]: > 100 µM (inactive) | GI50 [7]: > 100 µM (inactive) | GI50 [8]: > 100 µM (inactive) | GI50 [9]: > 100 µM (inactive) | GI50 [10]: > 100 µM (inactive) | GI50 [11]: > 100 µM (inactive) | GI50 [12]: > 100 µM (inactive) | GI50 [13]: > 100 µM (inactive) | GI50 [14]: > 100 µM (inactive)

COc1ccc(-c2cc(=O)c3c(O)c(OC)c(O)c(OC)c3o2)cc1OC
GI50 [1]: 63.7 µM | GI50 [2]: 46.2 µM (inactive) | GI50 [3]: > 100 µM (inactive) | GI50 [4]: 44.2 µM (inactive) | GI50 [15]: 25.1 µM (inactive) | GI50 [16]: > 100 µM (inactive) | GI50 [6]: > 100 µM (inactive) | GI50 [7]: > 100 µM (inactive) | GI50 [8]: 33.6 µM (inactive) | GI50 [10]: 33 µM (inactive) | GI50 [11]: 21.5 µM (inactive) | GI50 [17]: 31.2 µM (inactive) | GI50 [12]: 43.4 µM (inactive) | GI50 [13]: > 100 µM (inactive) | GI50 [14]: > 100 µM (inactive)

O=S(=O)(NCn1ccc2ccccc21)c1ccccc1
GI50 [1]: > 57.7 µM | GI50 [2]: > 100 µM (inactive) | GI50 [3]: > 100 µM (inactive) | GI50 [4]: > 100 µM (inactive) | GI50 [15]: > 100 µM (inactive) | GI50 [16]: > 31.6 µM (inactive) | GI50 [6]: 37 µM (inactive) | GI50 [7]: > 100 µM (inactive) | GI50 [8]: > 88.5 µM (inactive) | GI50 [9]: > 100 µM (inactive) | GI50 [10]: 97.5 µM (inactive) | GI50 [11]: > 100 µM (inactive) | GI50 [17]: 31.6 µM (inactive) | GI50 [12]: > 100 µM (inactive) | GI50 [13]: > 100 µM (inactive) | GI50 [14]: 38.4 µM (inactive)

Nc1cc2c3c(cccc3c1)C(=O)N(CCN1CCN(CCN3C(=O)c4cccc5cc(N)cc(c45)C3=O)CC1)C2=O
GI50 [1]: > 100 µM | GI50 [2]: > 100 µM (inactive) | GI50 [3]: > 100 µM (inactive) | GI50 [4]: > 100 µM (inactive) | GI50 [5]: > 100 µM (inactive) | GI50 [15]: > 100 µM (inactive) | GI50 [16]: 76.2 µM (inactive) | GI50 [6]: 32 µM (inactive) | GI50 [7]: > 100 µM (inactive) | GI50 [8]: > 100 µM (inactive) | GI50 [9]: 33.3 µM (inactive) | GI50 [10]: > 100 µM (inactive) | GI50 [11]: 37.9 µM (inactive) | GI50 [12]: > 100 µM (inactive) | GI50 [13]: > 100 µM (inactive) | GI50 [14]: 38.8 µM (inactive)

CN(C)CC1CCCCCCCCCCCCC(CN(C)C)C1=O (stereo not drawn)
GI50 [1]: 18.7 µM | GI50 [2]: 15.2 µM (inactive) | GI50 [3]: 15.7 µM (inactive) | GI50 [4]: 16.4 µM (inactive) | GI50 [5]: 13.3 µM (inactive) | GI50 [15]: 13.2 µM (inactive) | GI50 [16]: 17.5 µM (inactive) | GI50 [6]: 5.66 µM (inactive) | GI50 [7]: 14.5 µM (inactive) | GI50 [9]: 13.7 µM (inactive) | GI50 [10]: 16.2 µM (inactive) | GI50 [11]: 13.7 µM (inactive) | GI50 [17]: 1.46 µM (inactive) | GI50 [12]: 15.2 µM (inactive) | GI50 [13]: 22.6 µM (inactive) | GI50 [14]: 7.64 µM (inactive)

O=C1OC(c2ccccc2)=N/C1=C\c1cc(Cl)ccc1Cl
GI50 [1]: 16.4 µM | GI50 [2]: 72.4 µM (inactive) | GI50 [3]: > 100 µM (inactive) | GI50 [4]: > 100 µM (inactive) | GI50 [15]: > 100 µM (inactive) | GI50 [16]: > 100 µM (inactive) | GI50 [6]: > 100 µM (inactive) | GI50 [7]: > 100 µM (inactive) | GI50 [8]: 23.9 µM (inactive) | GI50 [9]: > 100 µM (inactive) | GI50 [10]: > 100 µM (inactive) | GI50 [11]: > 100 µM (inactive) | GI50 [12]: 80.2 µM (inactive) | GI50 [13]: > 100 µM (inactive) | GI50 [14]: 34.9 µM (inactive)

CCCCCCCCCCCCCCCCCc1nnc(N)o1
GI50 [1]: > 100 µM | GI50 [2]: > 100 µM (inactive) | GI50 [3]: > 100 µM (inactive) | GI50 [4]: > 100 µM (inactive) | GI50 [5]: > 100 µM (inactive) | GI50 [15]: > 100 µM (inactive) | GI50 [16]: > 100 µM (inactive) | GI50 [6]: > 100 µM (inactive) | GI50 [9]: > 100 µM (inactive) | GI50 [10]: > 100 µM (inactive) | GI50 [11]: > 100 µM (inactive) | GI50 [17]: > 100 µM (inactive) | GI50 [12]: > 100 µM (inactive) | GI50 [14]: > 100 µM (inactive)

COC(=O)C12CC3CC(C1)CC(C(=O)OC)(C3)C2
GI50 [1]: > 100 µM | GI50 [2]: > 100 µM (inactive) | GI50 [4]: > 100 µM (inactive) | GI50 [5]: > 100 µM (inactive) | GI50 [15]: > 100 µM (inactive) | GI50 [16]: > 100 µM (inactive) | GI50 [6]: > 100 µM (inactive) | GI50 [7]: > 100 µM (inactive) | GI50 [8]: > 100 µM (inactive) | GI50 [9]: > 100 µM (inactive) | GI50 [10]: > 100 µM (inactive) | GI50 [11]: > 100 µM (inactive) | GI50 [17]: > 100 µM (inactive) | GI50 [12]: > 100 µM (inactive) | GI50 [13]: > 100 µM (inactive) | GI50 [14]: > 100 µM (inactive)
